Where two headings read alike, the source gives them in different places.
What was measured:
[1] = tested on: hiPSC-CM (iCell Cardiomyocytes^2); experiment: RTCA CardioECR assessment (impedance and electrophysiology parameters); settings: hiPSC-CM; for RTCA, MEC (BR) / RTCA, MEC (CI): change ≥20%, Table 2
Method: (§1) Culture media change was performed every 2 days.
After seeding on fibronectin-coated xCELLigence ePlates (Agilent Technologies, Inc. Santa Clara, CA, USA), iCell^2 CM were monitored continuously through impedance electrodes. The following impedance parameters were measured: Cell Index (CI, measure of cell “health” and monolayer integrity), beating rate (BR) and amplitude (CI Amplitude, magnitude of contraction). Electrophysiology-like parameters (Field Potential Duration (FPD), considered as a surrogate for QT in in vivo studies, and Spike Amplitude (SA), depolarization induced by Na^+ channel opening) were measured starting from day 4–6, following the monolayer formation. […] All RTCA CardioECR data were double normalized (DMSO control and the baseline) with no further statistical group comparison for the normalized parameters. The variability of the data within the treatment groups was assessed by standard deviation.

[2] = tested on: hiPSC-CM (iCell Cardiomyocytes^2); experiment: Intracellular miRNA expression by RT-qPCR in hiPSC-CM pellets after 72-hour treatment
Method: as §1
Total RNA was extracted from hiPSC-CM using the miRNeasy 96 Kit (Qiagen, Hilden, Germany) following the manufacturer’s recommendations. After the extraction, RNA purity was assessed by NanoDrop™ 8000 Spectrophotometer (Thermo Fisher Scientific Inc.). 5–10 ng/μL of RNA per sample were reverse transcribed and pre-amplified by using the TaqMan™ Advanced miRNA cDNA Synthesis Kit (Thermo Fisher Scientific Inc.). The synthesized cDNA was used for RT-qPCR with selected TaqMan™ assays (Thermo Fischer Scientific Inc.). RT-qPCR was carried out following the Applied Biosciences TaqMan miRNA expression assay protocol on a ViiA7 instrument (Thermo Fisher Scientific, Inc.). […] Therefore, to maximize the number of drugs and concentrations, explored in the same study, we pooled the triplicates for intracellular profiling of miRNAs. Therefore, no statistical analysis was performed on the data of miRNA profiling in the pellets of hiPSC-CM.
Following RTCA CardioECR assessment, hiPSC-CM cell pellets were collected, and total RNA was extracted and purified to investigate miRNAs upregulation by RT-qPCR. […] For the initial assessment of intracellular miRNAs in 12 different treatments, encompassing various drug classes, we used a panel of 17 miRNAs, which we selected from the publicly available data focusing mainly on in vitro models and structural cardiotoxicants (Supplementary Table S2).

[3] = ref extensive literature search, cited from earlier work
[4] = 72-hour treatment, at least 20% change, Supplementary Table 1
[5] = 72-hour treatment, lowest concentration causing at least 20% change from baseline

CC(C)C[C@H](NC(=O)[C@H](CCc1ccccc1)NC(=O)CN1CCOCC1)C(=O)N[C@@H](Cc1ccccc1)C(=O)N[C@@H](CC(C)C)C(=O)[C@@]1(C)CO1 [Carfilzomib]
effect on BR at the lowest concentration tested ([1]; 72-hour treatment): quiescence (beat stop) | Field Potential Duration MEC ([1]; 72-hour treatment, at least 10% change): 0.3 µM | Contractility Amplitude MEC ([1]; 72-hour treatment, at least 20% change): 0.3 µM | Beating Rate MEC [1, 4]: 0.3 µM | Cell Index MEC [1, 4]: 0.3 µM | Spike Amplitude (SA) MEC ([1]; 72-hour treatment, at least 40% change): 0.3 µM | Beating rate (BR) MEC [1, 5]: 0.3 µM | Cell index (CI) MEC [1, 5]: 0.3 µM | RTCA, MEC (BR) [1]: 0.3 µM (CI, BR (Q)) | RTCA, MEC (CI) [1]: 0.3 µM (CI, BR (Q)) | hsa-miR-7-5p fold change, intracellular ([2]; 0.3 µM, 72 h): 8.1 | hsa-miR-29a-5p fold change, intracellular ([2]; 0.3 µM, 72 h): 0.4 | hsa-miR-96-5p fold change, intracellular ([2]; 0.3 µM, 72 h): 21.0 | hsa-miR-126-3p fold change, intracellular ([2]; 0.3 µM, 72 h): 2.1 | hsa-miR-133b fold change, intracellular ([2]; 0.3 µM, 72 h): 5.5 | hsa-miR-146b-5p fold change, intracellular ([2]; 0.3 µM, 72 h): 0.3 | hsa-miR-182-5p fold change, intracellular ([2]; 0.3 µM, 72 h): 12.6 | hsa-miR-185-3p fold change, intracellular ([2]; 0.3 µM, 72 h): 1.1 | hsa-miR-187-3p fold change, intracellular ([2]; 0.3 µM, 72 h): 0.7 | hsa-miR-208b-3p fold change, intracellular ([2]; 0.3 µM, 72 h): 1.1 | hsa-miR-365a-5p fold change, intracellular ([2]; 0.3 µM, 72 h): 0.2 | hsa-miR-7-5p fold change, intracellular ([2]; 1 µM, 72 h): 1.3 | hsa-miR-29a-5p fold change, intracellular ([2]; 1 µM, 72 h): 1.4 | hsa-miR-96-5p fold change, intracellular ([2]; 1 µM, 72 h): 5.6 | hsa-miR-126-3p fold change, intracellular ([2]; 1 µM, 72 h): 0.9 | hsa-miR-133b fold change, intracellular ([2]; 1 µM, 72 h): 0.3 | hsa-miR-146b-5p fold change, intracellular ([2]; 1 µM, 72 h): 0.08 | hsa-miR-182-5p fold change, intracellular ([2]; 1 µM, 72 h): 20.8 | hsa-miR-185-3p fold change, intracellular ([2]; 1 µM, 72 h): 9.0 | hsa-miR-187-3p fold change, intracellular ([2]; 1 µM, 72 h): 1.7 | hsa-miR-208b-3p fold change, intracellular ([2]; 1 µM, 72 h): 1.0 | hsa-miR-365a-5p fold change, intracellular ([2]; 1 µM, 72 h): 0.01 | hsa-miR-7-5p fold change, intracellular ([2]; 3 µM, 72 h): 2.3 | hsa-miR-96-5p fold change, intracellular ([2]; 3 µM, 72 h): 10.7 | hsa-miR-126-3p fold change, intracellular ([2]; 3 µM, 72 h): 0.5 | hsa-miR-133b fold change, intracellular ([2]; 3 µM, 72 h): 0.4 | hsa-miR-146b-5p fold change, intracellular ([2]; 3 µM, 72 h): 0.06 | hsa-miR-182-5p fold change, intracellular ([2]; 3 µM, 72 h): 14.0 | hsa-miR-185-3p fold change, intracellular ([2]; 3 µM, 72 h): 3.3 | hsa-miR-187-3p fold change, intracellular ([2]; 3 µM, 72 h): 2.1 | hsa-miR-208b-3p fold change, intracellular ([2]; 3 µM, 72 h): 1.0 | hsa-miR-365a-5p fold change, intracellular ([2]; 3 µM, 72 h): 0.04 | hsa-miR-7-5p fold change, intracellular ([2]; 10 µM, 72 h): 3.8 | hsa-miR-29a-5p fold change, intracellular ([2]; 10 µM, 72 h): 0.8 | hsa-miR-96-5p fold change, intracellular ([2]; 10 µM, 72 h): 1.6 | hsa-miR-126-3p fold change, intracellular ([2]; 10 µM, 72 h): 0.4 | hsa-miR-133b fold change, intracellular ([2]; 10 µM, 72 h): 0.3 | hsa-miR-146b-5p fold change, intracellular ([2]; 10 µM, 72 h): 0.01 | hsa-miR-182-5p fold change, intracellular ([2]; 10 µM, 72 h): 5.7 | hsa-miR-185-3p fold change, intracellular ([2]; 10 µM, 72 h): 0.2 | hsa-miR-187-3p fold change, intracellular ([2]; 10 µM, 72 h): 20.5 | hsa-miR-208b-3p fold change, intracellular ([2]; 10 µM, 72 h): 1.0 | hsa-miR-365a-5p fold change, intracellular ([2]; 10 µM, 72 h): 0.02 | miRNAs upregulated at the MEC overall (hiPSC-CM pellet) ([2]; fold change ≥2, 72 h): miR-126-3p, miR-133b, miR-182-5p, miR-184, miR-187-3p, miR-7-5p, miR-96-5p | miRNAs hiPSC-CM pellet, MEC overall ([2]; lowest concentration tested which produced miRNA upregulation (fold change ≥2), 72 h): 0.3 µM | Cmax total ([3]; Supplementary Table 1): 5.88 µM | Cmax total ([3]; Table 1): 5.88 µM

O=P1(N(CCCl)CCCl)NCCCO1 (stereo not shown) [Cyclophosphamide]
Beating rate (BR) MEC [1, 5]: ND (ND – not detected, magnitude of change was lower than 20%) | RTCA, MEC (BR) [1]: ND (ND – not detected, magnitude of change was lower than 20% for CI/BR) | RTCA, MEC (CI) [1]: ND (ND – not detected, magnitude of change was lower than 20% for CI/BR) | miRNAs hiPSC-CM pellet, MEC overall [2]: 3 µM (96-5p, 182-5p, 185-3p, 208b-3p) | miRNAs upregulated at the MEC overall (hiPSC-CM pellet) [2]: 3 µM (96-5p, 182-5p, 185-3p, 208b-3p) | Cmax total ([3]; Supplementary Table 1): 126 µM | Cmax total ([3]; Table 1): 126.00 µM
